The text below walks through data of patent US20220380375A1, “SUBSTITUTED AROMATIC FUSED RING DERIVATIVE AND COMPOSITION COMPRISING SAME, AND USE THEREOF” (Shenzhen TargetRx, Inc., priority 2019, published 2022).

Assay type in all cases: cell-based
Assay [1] concerns the target T1, Ba/F3 KIF5B-RET^V804M cells (Homo sapiens, UniProt P07949, V804M, cells depend on it).
T1 construct: Ba/F3 KIF5B-RET^V804M IC50 (nM); other: CellTiter-Glo, 72 hrs; fused on or other part: P33176 (Kinesin-1 heavy chain)
The assay can be described thus: Cytotoxicity assay (CellTiter-Glo), Ba/F3 KIF5B-RET V804M. The settings on record: CellTiter-Glo, 72 hrs; read-out: Ba/F3 KIF5B-RET^V804M IC50. As to the method: (§1) Inhibitory effects of example compounds on the activity of Ba/F3 parental generation, Ba/F3 KIF5B-RET, Ba/F3 KIF5B-RET^V804M, Ba/F3 KIF5B-RET^V804L, Ba/F3 KIF5B-RET^G810R, Ba/F3 FLT3-ITD, Ba/F3 FLT3-ITD^D835Y, Ba/F3 FLT3-ITD^F691L cells were determined.
(§2) Materials and reagents: fetal bovine serum FBS (GIBCO, Cat #10099141), CellTiter-Glo® Luminescent Cell Viability Assay kit (Promega, Cat #G7572), 96-well black-wall clear flat-bottom plate (Corning®, Cat #3603).
(§3) 1. Cells in the logarithmic growth phase were harvested and counted with a […]. Cell viability was detected by a trypan blue exclusion method, ensuring that cell viability was 90% or more; 2. Cell concentration was adjusted to about 3000 cells/well; 90 μl of cell suspension was added to each well of the 96-well plate; 3. The cells in the 96-well plate were incubated overnight under the condition of 37° C., 5% CO2, and 95% humidity.
(§4) 1. A series of compound solutions were formulated by 3.16-fold serial dilution starting from a concentration of 10 μM, resulting in 9 concentrations. 10 μL of the compound solutions were added in each well of the 96-well plate seeded with cells in triplicate for each compound concentration; 2. The cells in the 96-well plate added with compounds were further incubated under the condition of 37° C., 5% CO2, and 95% humidity for 72 hrs, and then CTG analysis was carried out.
(§5) 1. CTG reagent was thawed, and the cell plate was equilibrated at room temperature for 30 minutes; 2. An equal volume […] of CTG solution was added to each well; 3. The cell plate was shaken on an orbital shaker for 5 minutes to lyse the cells; 4. The cell plate was placed at RT for 20 minutes to stabilize the luminescence signal; 5. Luminescence value was read.
(§6) Data were Analyzed by GraphPad Prism 5.0 Software, and Fitted by Nonlinear S-Curve Regression to obtain a dose-response curve, from which IC50 values were calculated.
(§7) Cell survival rate (%)=(luminescence value of drug to be tested−luminescence value of culture medium control)/(luminescence value of cell control−luminescence value of culture medium control)×100%.
(In general: Cellular ATP, detected with luciferase, serves as a proxy for viable cell number.)

Assay [2] has as its system Ba/F3 KIF5B-RET^V804M cells. The assay is described as above. Conditions: ratio of Ba/F3 parental IC50 to Ba/F3 KIF5B-RET^V804M IC50. As to the method:
as §1, §2, §3, §4, §5, §6, §7

Assay [3] has as its system Ba/F3 KIF5B-RET^V804L cells. Briefly: Cytotoxicity assay (CellTiter-Glo), Ba/F3 KIF5B-RET V804L. Conditions: ratio of Ba/F3 parental IC50 to Ba/F3 KIF5B-RET^V804L IC50. The method, then: as §1, §2, §3, §4, §5, §6, §7
Assay [4] has as its target T2, Ba/F3 KIF5B-RET^V804L cells (Homo sapiens, UniProt P07949, V804L, cells depend on it).
T2 construct: Ba/F3 KIF5B-RET^V804L IC50 (nM); other: CellTiter-Glo, 72 hrs; fused on or other part: P33176 (Kinesin-1 heavy chain)
Described as above. The settings on record: CellTiter-Glo, 72 hrs; read-out: Ba/F3 KIF5B-RET^V804L IC50. As to the method: as §1, §2, §3, §4, §5, §6, §7

Assay [5] concerns Ba/F3 KIF5B-RET^G810R cells. Briefly: Cytotoxicity assay (CellTiter-Glo), Ba/F3 KIF5B-RET G810R. The settings on record: ratio of Ba/F3 parental IC50 to Ba/F3 KIF5B-RET^G810R IC50. As to the method:
as §1, §2, §3, §4, §5, §6, §7

Assay [6] concerns the target T3, Ba/F3 KIF5B-RET^G810R cells (Homo sapiens, UniProt P07949, G810R, cells depend on it).
T3 construct: Ba/F3 KIF5B-RET^G810R IC50 (nM); other: CellTiter-Glo, 72 hrs; fused on or other part: P33176 (Kinesin-1 heavy chain)
The description is as above. The settings on record: CellTiter-Glo, 72 hrs; read-out: Ba/F3 KIF5B-RET^G810R IC50. As to the method: as §1, §2, §3, §4, §5, §6, §7

Assay [7] relates to Ba/F3 FLT3-ITD cells. The assay can be described thus: Cytotoxicity assay (CellTiter-Glo), Ba/F3 FLT3-ITD. Conditions: ratio of Ba/F3 parental IC50 to Ba/F3 FLT3-ITD IC50. As to the method: as §1, §2, §3, §4, §5, §6, §7
In assay [8] the target is T4, Ba/F3 FLT3-ITD cells (Homo sapiens, UniProt P36888, cells depend on it, form not given).
T4 construct: Ba/F3 FLT3-ITD IC50 (nM); other: CellTiter-Glo, 72 hrs
T4 sequence (P36888 1-993): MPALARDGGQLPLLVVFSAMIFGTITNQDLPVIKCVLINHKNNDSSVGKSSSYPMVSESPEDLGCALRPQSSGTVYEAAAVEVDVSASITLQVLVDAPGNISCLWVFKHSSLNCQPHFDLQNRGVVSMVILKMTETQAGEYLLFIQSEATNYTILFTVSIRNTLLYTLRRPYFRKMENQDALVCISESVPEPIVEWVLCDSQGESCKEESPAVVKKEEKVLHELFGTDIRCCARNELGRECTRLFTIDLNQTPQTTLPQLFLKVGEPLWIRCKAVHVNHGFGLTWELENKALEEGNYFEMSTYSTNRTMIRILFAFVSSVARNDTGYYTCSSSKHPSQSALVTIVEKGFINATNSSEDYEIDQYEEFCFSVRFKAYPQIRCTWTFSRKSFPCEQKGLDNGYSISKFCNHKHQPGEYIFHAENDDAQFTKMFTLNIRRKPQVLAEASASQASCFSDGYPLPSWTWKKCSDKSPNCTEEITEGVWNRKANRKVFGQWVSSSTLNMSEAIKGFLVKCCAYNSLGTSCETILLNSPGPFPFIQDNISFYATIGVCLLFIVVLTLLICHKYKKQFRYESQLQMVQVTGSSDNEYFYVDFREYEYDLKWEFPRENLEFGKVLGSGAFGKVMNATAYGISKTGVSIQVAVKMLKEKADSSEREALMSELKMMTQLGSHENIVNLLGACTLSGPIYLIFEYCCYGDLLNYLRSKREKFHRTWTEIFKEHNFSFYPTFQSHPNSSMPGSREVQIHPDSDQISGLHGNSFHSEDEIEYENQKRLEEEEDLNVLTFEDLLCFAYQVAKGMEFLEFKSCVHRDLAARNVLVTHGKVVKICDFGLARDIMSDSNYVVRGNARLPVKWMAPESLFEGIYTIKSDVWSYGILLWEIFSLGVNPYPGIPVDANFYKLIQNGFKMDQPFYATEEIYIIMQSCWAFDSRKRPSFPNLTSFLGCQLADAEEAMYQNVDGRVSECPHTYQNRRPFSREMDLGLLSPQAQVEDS
The assay can be described thus: Cytotoxicity assay (CellTiter-Glo), Ba/F3 FLT3-ITD. Conditions: CellTiter-Glo, 72 hrs; read-out: Ba/F3 FLT3-ITD IC50. The method, then: as §1, §2, §3, §4, §5, §6, §7

T1 sequence (P07949 whole entry V804M, the tested form may be a part): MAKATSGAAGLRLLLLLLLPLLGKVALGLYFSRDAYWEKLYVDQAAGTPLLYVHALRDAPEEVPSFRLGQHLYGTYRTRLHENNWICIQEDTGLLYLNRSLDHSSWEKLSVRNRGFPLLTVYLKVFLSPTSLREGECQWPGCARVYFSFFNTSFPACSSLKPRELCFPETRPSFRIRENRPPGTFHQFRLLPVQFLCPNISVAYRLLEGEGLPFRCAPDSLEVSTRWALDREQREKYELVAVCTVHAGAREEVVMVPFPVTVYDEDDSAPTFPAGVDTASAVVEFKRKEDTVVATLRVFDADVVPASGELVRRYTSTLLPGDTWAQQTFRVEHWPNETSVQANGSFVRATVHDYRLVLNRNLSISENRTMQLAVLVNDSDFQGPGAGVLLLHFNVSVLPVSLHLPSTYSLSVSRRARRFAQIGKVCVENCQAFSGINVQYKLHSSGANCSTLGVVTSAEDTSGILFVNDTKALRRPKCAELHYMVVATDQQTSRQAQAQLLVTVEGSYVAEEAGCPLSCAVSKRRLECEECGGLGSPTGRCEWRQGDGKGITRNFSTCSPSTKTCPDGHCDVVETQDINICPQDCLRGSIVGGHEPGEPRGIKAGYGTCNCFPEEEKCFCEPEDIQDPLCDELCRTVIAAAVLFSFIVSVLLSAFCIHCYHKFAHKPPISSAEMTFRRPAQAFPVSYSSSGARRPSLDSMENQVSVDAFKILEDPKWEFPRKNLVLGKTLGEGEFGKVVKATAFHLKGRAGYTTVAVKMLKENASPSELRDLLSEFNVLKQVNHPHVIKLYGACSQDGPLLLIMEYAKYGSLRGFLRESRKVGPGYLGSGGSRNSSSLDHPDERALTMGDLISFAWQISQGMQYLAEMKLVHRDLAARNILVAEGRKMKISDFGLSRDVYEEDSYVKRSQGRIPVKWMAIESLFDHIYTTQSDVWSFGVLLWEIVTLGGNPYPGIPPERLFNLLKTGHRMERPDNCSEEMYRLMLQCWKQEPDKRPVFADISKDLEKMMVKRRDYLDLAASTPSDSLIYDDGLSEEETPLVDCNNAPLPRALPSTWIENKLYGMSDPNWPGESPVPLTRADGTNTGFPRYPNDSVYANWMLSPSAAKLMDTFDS
T3 sequence (P07949 whole entry G810R, the tested form may be a part): as the sequence (P07949 whole entry V804M, the tested form may be a part) above, with M804V, G810R counted along it
T2 sequence (P07949 whole entry V804L, the tested form may be a part): as the sequence (P07949 whole entry V804M, the tested form may be a part) above, with M804L counted along it

As to `CC(C)n1nc(-c2ccc(NC(=O)Nc3cc(C(F)(F)F)ccc3F)cc2)c2c(N)ncnc21` [AD80, reference compound], the GI50 in assay [1] stood at 10.8 nM; in assay [4] it was 9.05 nM; in assay [6], 7.88 nM; on Ba/F3 FLT3-ITD cells [8] it was 0.67 nM. Besides, the “Ba/F3 KIF5B-RET^V804M Selectivity on parental generation” value (shortened to “Ba/F3 KIF5B-RET^V804M Selectivity”) in assay [2] turned out to be 75.2. Further, in assay [3], the “Ba/F3 KIF5B-RET^V804L Selectivity on parental generation” value (“Ba/F3 KIF5B-RET^V804L Selectivity” for short) is given as 89.7. Also, in assay [5], the “Ba/F3 KIF5B-RET^G810R Selectivity on parental generation” value (“Ba/F3 KIF5B-RET^G810R Selectivity” below) was found to be 103.0. Moreover, in the assay on Ba/F3 FLT3-ITD cells [7], the “Ba/F3 FLT3-ITD Selectivity on parental generation” value (shortened to “Ba/F3 FLT3-ITD Selectivity”) is 1211.9.
On to `CC(C)n1nc(-c2ccc(CC(=O)Nc3cc(C(C)(C)C(F)(F)F)on3)cc2)c2c(N)ncnc21` [Compound T-1, 2-(4-(4-amino-1-isopropyl-1H-pyrazolo[3,4-d]pyrimidin-3-yl)phenyl)-N-(5-(1,1,1-trifluoro-2-methylprop-2-yl)isoxazol-3-yl)acetamide], for which the GI50 in assay [1] worked out at 5.65 nM; in assay [4], 3.71 nM; in assay [6], 2.64 nM; at Ba/F3 FLT3-ITD cells [8], 0.31 nM. Besides, in assay [2], the “Ba/F3 KIF5B-RET^V804M Selectivity” value amounted to 286.8. The “Ba/F3 KIF5B-RET^V804L Selectivity” value in assay [3] came to 436.8. In assay [5], the “Ba/F3 KIF5B-RET^G810R Selectivity” value amounted to 613.8. In addition, the “Ba/F3 FLT3-ITD Selectivity” value in the assay on Ba/F3 FLT3-ITD cells [7] was found to be 5227.1.
`CC(C)n1nc(-c2ccc(NC(=O)Nc3cc(C(C)(C)C(F)(F)F)on3)cc2)c2c(N)ncnc21` [Compound T-2, 1-(4-(4-amino-1-isopropyl-1H-pyrazolo[3,4-d]pyrimidin-3-yl)phenyl)-3-(5-(1,1,1-trifluoro-2-methylprop-2-yl)isoxazol-3-yl)urea]: the GI50 in assay [1] came out at 2.64 nM; in assay [4], 5.39 nM; in assay [6] it was 2.98 nM; on Ba/F3 FLT3-ITD cells [8], 0.41 nM. Further, the “Ba/F3 KIF5B-RET^V804M Selectivity” value in assay [2] is 128.0. For the same compound, the “Ba/F3 KIF5B-RET^V804L Selectivity” value in assay [3] was 62.68. The “Ba/F3 KIF5B-RET^G810R Selectivity” value in assay [5] is 113.4. For the same compound, in the assay on Ba/F3 FLT3-ITD cells [7], the “Ba/F3 FLT3-ITD Selectivity” value stood at 824.0.
As for `CC(C)n1cc(-c2ccc(CC(=O)Nc3cc(C(C)(C)C(F)(F)F)on3)cc2)c2c(N)ncnc21` [Compound T-3, 2-(4-(4-amino-7-isopropyl-7H-pyrrolo[2,3-d]pyrimidin-5-yl)phenyl)-N-(5-(1,1,1-trifluoro-2-methylprop-2-yl)isoxazol-3-yl)acetamide], the GI50 in assay [1] is 3.21 nM; in assay [4], 3.63 nM; in assay [6] it was 3.84 nM; on Ba/F3 FLT3-ITD cells [8] it was 0.1 nM. In addition, in assay [2], the “Ba/F3 KIF5B-RET^V804M Selectivity” value is 225.7. Further, the “Ba/F3 KIF5B-RET^V804L Selectivity” value in assay [3] turned out to be 199.6. Besides, in assay [5], the “Ba/F3 KIF5B-RET^G810R Selectivity” value came to 188.7. The “Ba/F3 FLT3-ITD Selectivity” value in the assay with Ba/F3 FLT3-ITD cells [7] came out at 7244.4.
As to `CC(C)c1nc(-c2ccc(CC(=O)Nc3cc(C(C)(C)C(F)(F)F)on3)cc2)c2c(N)nccn12` [Compound T-4, 2-(4-(8-amino-3-isopropylimidazo[1,5-a]pyrazin-1-yl)phenyl)-N-(5-(1,1,1-trifluoro-2-methylprop-2-yl)isoxazol-3-yl)acetamide], the GI50 in assay [1] came to 9.53 nM; in assay [4], 31.6 nM; in assay [6] it was 25.5 nM; on Ba/F3 FLT3-ITD cells [8] it was 0.1 nM. Moreover, the “Ba/F3 KIF5B-RET^V804M Selectivity” value in assay [2] stood at 73.6. Moreover, in assay [3], the “Ba/F3 KIF5B-RET^V804L Selectivity” value came out at 22.2. The “Ba/F3 KIF5B-RET^G810R Selectivity” value in assay [5] was found to be 27.5. Also, in the assay with Ba/F3 FLT3-ITD cells [7], the “Ba/F3 FLT3-ITD Selectivity” value was 7011.0.
Consider `CC(C)c1cc(-c2ccc(CC(=O)Nc3cc(C(C)(C)C(F)(F)F)on3)cc2)c2c(N)ncnn12` [Compound T-5, 2-(4-(4-amino-7-isopropylpyrrolo[2,1-f][1,2,4]triazin-5-yl)phenyl)-N-(5-(1,1,1-trifluoro-2-methylprop-2-yl)isoxazol-3-yl)acetamide], for which the GI50 in assay [1] came out at 12.9 nM; in assay [4], 19.7 nM; in assay [6], 13.6 nM; on Ba/F3 FLT3-ITD cells [8] it was 1.89 nM. In assay [2], the “Ba/F3 KIF5B-RET^V804M Selectivity” value amounted to 370.8. In assay [3], the “Ba/F3 KIF5B-RET^V804L Selectivity” value was found to be 242.8. Moreover, the “Ba/F3 KIF5B-RET^G810R Selectivity” value in assay [5] came to 351.7. Also, the “Ba/F3 FLT3-ITD Selectivity” value in the assay with Ba/F3 FLT3-ITD cells [7] came to 2530.7.
